Experimental findings from paper PMC2175304 (Nucleic Acids Research, 2007) are described below.

The structures appear in SMILES notation.

This experiment deals with Trm6p/Trm61p complex (yeast tRNA m^1A58 Mtase) (Saccharomyces cerevisiae, UniProt P46959). The experiment in a line: biochemical.

One may read the Kd as the free concentration of one partner at which half of the binding sites on the other are occupied at equilibrium, for simple one-to-one binding. Read a low Kd as higher affinity.

Trm6p/Trm61p complex (yeast tRNA m^1A58 Mtase), sequence (P46959 whole entry): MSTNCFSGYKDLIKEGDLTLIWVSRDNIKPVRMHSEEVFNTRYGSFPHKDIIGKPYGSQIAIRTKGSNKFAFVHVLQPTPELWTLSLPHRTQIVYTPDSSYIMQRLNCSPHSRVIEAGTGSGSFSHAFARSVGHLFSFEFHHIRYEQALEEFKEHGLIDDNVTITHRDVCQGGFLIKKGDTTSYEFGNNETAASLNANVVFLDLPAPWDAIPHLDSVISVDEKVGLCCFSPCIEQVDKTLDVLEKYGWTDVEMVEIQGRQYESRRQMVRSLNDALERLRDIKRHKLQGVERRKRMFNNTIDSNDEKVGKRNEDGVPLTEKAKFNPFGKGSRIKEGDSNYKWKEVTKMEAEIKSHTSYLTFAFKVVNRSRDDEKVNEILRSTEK
Trm6p/Trm61p complex (yeast tRNA m^1A58 Mtase), sequence (P41814 whole entry partner): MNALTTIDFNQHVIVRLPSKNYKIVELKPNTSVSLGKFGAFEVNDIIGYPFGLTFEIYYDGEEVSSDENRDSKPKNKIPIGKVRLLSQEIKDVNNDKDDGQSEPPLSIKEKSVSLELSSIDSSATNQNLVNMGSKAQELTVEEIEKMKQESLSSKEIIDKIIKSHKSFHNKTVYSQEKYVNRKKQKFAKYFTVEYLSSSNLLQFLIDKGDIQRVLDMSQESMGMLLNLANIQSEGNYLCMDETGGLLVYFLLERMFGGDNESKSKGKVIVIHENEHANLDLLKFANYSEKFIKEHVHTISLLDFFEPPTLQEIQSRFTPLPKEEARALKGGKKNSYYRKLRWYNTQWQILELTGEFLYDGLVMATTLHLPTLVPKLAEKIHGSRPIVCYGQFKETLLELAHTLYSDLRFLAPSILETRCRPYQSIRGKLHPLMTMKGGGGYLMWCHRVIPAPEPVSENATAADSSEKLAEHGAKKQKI

`C[S+](CC[C@H](N)C(=O)O)C[C@H]1O[C@@H](n2cnc3c(N)ncnc32)[C@H](O)[C@@H]1O` (stereo partly shown) [AdoMet]: binding was characterised by a dissociation constant (Kd) of 376 ± 73 µM.
